Paper PMC10931745 (International Journal of Molecular Sciences, 2024)

Assays:
[1] = system: MCF-7; test: MTT cell viability assay; assay type: cell-based, human; conditions: 72 h
Protocol: (§1) The cell lines used were purchased from American Type Culture Collection (ATCC, Manassas, VA, USA). Human breast cancer cells MCF-7 and MDA-MB-231, human mammary epithelial cell line MCF-10A, and mouse BALB/3T3 embryonic fibroblasts were cultured as already described by some of us. The murine macrophage cell line RAW 264.7 was maintained in Dulbecco’s Modified Eagle’s Medium (DMEM) high glucose (4.5 g/L) supplemented with 10% Fetal Bovine Serum (FBS), 1% L-glutamine, and 100 units/mL of penicillin/streptomycin. The cell cultures were maintained at the temperature of 37 °C in a humidified atmosphere containing 5% CO2.
(§2) The 3-(4,5-dimethylthiazol-2-yl)-2,5-diphenyl-2H-tetrazolium bromide (MTT) assay (Sigma Aldrich (St. Louis, MO, USA)) was carried out to study the in vitro anticancer activities of the complexes, following the previously reported protocol. The cells were incubated for 72 h with different concentrations of the tested compounds (0.1, 1, 10, 25, 50, 100, and 500 µM) and the IC50 values were calculated from the percent (%) of control using the software GraphPad Prism 9 (GraphPad Software, La Jolla, CA, USA).

[2] = system: MDA-MB-231; test: MTT cell viability assay; assay type: cell-based, human; conditions: 72 h
Protocol: as §1, §2

[3] = system: NF-κB localization in MDA-MB-231 cells; test: Immunofluorescence, NF-κB localization; assay type: cell-based, human; conditions: 15 µM
Protocol: (§3) After a PBS wash, cells were fixed using cold methanol (15 min at −20 °C) and incubated overnight at 4 °C with the primary antibodies raised against NF-κB, iNOS, TNF-α, and COX-1 and 2 (Santa Cruz Biotechnology Inc., Santa Cruz, CA, USA) diluted in BSA 2%, as previously described. […] DAPI (Sigma Aldrich, Milan, Italy) 0.2 µg/mL was added for 10 min for nuclei counterstaining. A fluorescence microscope (Leica DM 6000) was used for visualizing images, and LAS-X software 3.5.7.23225 was used for acquisition and processing.

[4] = system: TNF-α expression in MDA-MB-231 cells; test: Immunofluorescence, TNF-α expression; assay type: cell-based, human; conditions: 15 µM, 24 h
Protocol: as §3

[5] = system: ROS production in BALB/3T3 fibroblasts; test: Intracellular ROS detection with DCFH2-DA; assay type: cell-based, murine; conditions: 25 µM, 24 h pre-treatment
Protocol: In vitro detection of intracellular ROS on fibroblasts BALB/3T3 using DCFH2-DA The assay to evaluate the in vitro antioxidant activity was carried out using the murine BALB/3T3 fibroblasts that were plated in a white 96 MW and then treated with the complexes at a concentration of 25 µM for 24 h. Menadione (25 µM) was then added for 15 min to induce ROS production. After treatment, the cells were washed with PBS and treated with 25 μM 2′-7′-dichlorofluorescein diacetate (DCFH2-DA, Sigma-Aldrich, St. Louis, MO, USA), and then they were incubated for 40 min at 37 °C and 5% CO2. The probe DCFH2-DA penetrates cells where it is […] into a non-fluorescent form (DCFH2) by endogenous esterases. In the presence of intracellular ROS, non-fluorescent H2DCF is oxidized to the fluorescent 2′,7′-dichlorofluorescein (DCF). Then, the cells were washed with PBS and the fluorescence was detected using a multiplate reader (λex = 485 nm, λem = 535 nm). Based on the obtained fluorescence values, the ROS production inhibition % (IROS) vs. menadione was calculated using the following formula:(1) IROS vs. Menadione (%)=FMen−FSample/FMen∗100 where FMen represents the mean fluorescence obtained after treatment with menadione alone and Fsample represents the mean fluorescence obtained after the co-treatment with the complexes and menadione.

[6] = DPPH radical scavenging assay; assay type: biochemical
Protocol: The radical scavenging properties of the complexes on the 1,1-diphenyl-2-picrylhydrazil (DPPH) radical were evaluated as previously described.
All the complexes were used at different concentrations (10, 25, 50, 100, and 200 µg/mL) and the DPPH radical scavenging activity, measured at 517 nm using a microplate reader, was expressed as inhibition percentages (%IDPPH) compared to the initial concentration of DPPH (control) according to the following expression:(2) IDPPH (%)=ABSCTRL−ABSsample/ABSCTRL∗100 where ABSCTRL and ABSsample are the absorbance at 517 nm in the control and in the presence of samples, respectively.
The obtained IDPPH percentages allowed us to calculate the IC50 values using Graph-Pad Prism 9 software (GraphPad Inc., San Diego, CA, USA). Trolox was employed as a positive control, while caffeine and theophylline were reference compounds.

[7] = system: Enterococcus faecalis (ATCC 19433); test: MIC/MBC broth dilution; assay type: cell-based
Protocol: (§4) The bacterial strains used for MIC and MBC value determinations expressed as µg/mL by the broth dilution method, according to CLSI guidelines, were the following:
(§5) -3 Gram-positive: Enterococcus faecalis (ATCC® 19433^TM), Staphylococcus aureus (ATCC® 23235^TM), and Staphylococcus epidermidis (ATCC® 14990™).
(§6) Increasing concentrations of the complexes (50, 70, 100, 150, and 200 µg/mL) were incubated with bacteria plated in 96-well microplates at 37 °C overnight as already reported, and then bacterial growth was checked at a wavelength of 600 nm using a Multiskan spectrophotometer (model Multiskan Ex Microplate; Thermo Scientific, Nyon, Switzerland). MIC or MBC values were obtained by comparing cell density with a positive control (bacterial cells grown in LB medium were added with only the vehicle, DMSO). The results were representative of three independent experiments performed in triplicate. Ampicillin, Gentamicin, and Cephalosporin (Sigma Aldrich A9393) were used as the control for strain sensitivity.

[8] = system: Staphylococcus aureus (ATCC 23235); test: MIC/MBC broth dilution; assay type: cell-based
Protocol: as §4, §5, §6

[9] = system: Staphylococcus epidermidis (ATCC 14990); test: MIC/MBC broth dilution; assay type: cell-based
Protocol: as §4, §5, §6

[10] = system: Pseudomonas aeruginosa (ATCC 15442); test: MIC/MBC broth dilution; assay type: cell-based
Protocol: as §4
as §6, with “The results were representative of three independent experiments performed in triplicate.” left out

[11] = system: Salmonella typhimurium (ATCC 14028); test: MIC/MBC broth dilution; assay type: cell-based
Protocol: as §4
as §6, with “The results were representative of three independent experiments performed in triplicate.” left out

CC(=O)[O][Ag-][c]1n(C)c2c(c(=O)n(C)c(=O)n2C)[n+]1C1CCCCC1O (centres unmarked) [AgL2OAc, 1,3,7-Trimethylxanthin-9-[cyclohexan-2-ol-8-ylidene]Ag(I) Acetate]
IC50 [1]: 28.7 ± 1 µM
IC50 [2]: 19.4 ± 1 µM
NF-κB intracellular localization [3]: prevalently located in the cytoplasm
Reduction in TNF-α expression (fluorescence quantification) [4]: ~50%
ROS level reduction vs. menadione [5]: ~59%
IC50 [6]: > 500 µM
M.B.C. E. faecalis [7]: > 200 µg/mL
M.I.C. E. faecalis [7]: 150 µg/mL
M.B.C. S. aureus [8]: > 150 µg/mL
M.I.C. S. aureus [8]: 100 µg/mL
M.B.C. S. epidermidis [9]: > 125 µg/mL
M.I.C. S. epidermidis [9]: 100 µg/mL
M.B.C. P. aeruginosa [10]: > 125 µg/mL
M.I.C. P. aeruginosa [10]: 100 µg/mL
M.B.C. S. typhimurium [11]: > 200 µg/mL
M.I.C. S. typhimurium [11]: 150 µg/mL

Cn1c(=O)c2c(n(C)[c]([Au-][I])[n+]2CC(O)c2ccccc2)n(C)c1=O (racemic) [AuL1, 1,3,7-Trimethylxanthin-9-[(2-hydroxy-2-phenyl)ethyl-8-ylidene]Au(I) Iodide]
IC50 [1]: 73.8 ± 1.1 µM
IC50 [2]: 14.7 ± 1.1 µM
NF-κB intracellular localization [3]: prevalently located in the cytoplasm
Reduction in TNF-α expression (fluorescence quantification) [4]: about 60%
ROS level reduction vs. menadione [5]: approximately 69%
IC50 [6]: > 500 µM
M.B.C. E. faecalis [7]: > 200 µg/mL
M.I.C. E. faecalis [7]: 150 µg/mL
M.B.C. S. aureus [8]: > 200 µg/mL
M.I.C. S. aureus [8]: 150 µg/mL
M.B.C. S. epidermidis [9]: > 150 µg/mL
M.I.C. S. epidermidis [9]: 125 µg/mL
M.B.C. P. aeruginosa [10]: > 125 µg/mL
M.I.C. P. aeruginosa [10]: 100 µg/mL
M.B.C. S. typhimurium [11]: > 200 µg/mL
M.I.C. S. typhimurium [11]: 150 µg/mL
